This note sets out measurements from ChEMBL document CHEMBL1131888, “Synthesis, dopamine and serotonin transporter binding affinities of novel analogues of meperidine” (Bioorg Med Chem Lett, 1999).

Assay [1] concerns the target Sodium-dependent serotonin transporter (Rattus norvegicus, UniProt P31652). Briefly: Displacement of [3H]paroxetine from serotonin transporter (SERT).
Assay [2] deals with Monoamine transporters; serotonin & dopamine (Rattus norvegicus) (UniProt P31652+P23977). Briefly: Relative affinity for dopamine and serotonin transporters. In kind it is protein assay.
Monoamine transporters; serotonin & dopamine (Rattus norvegicus), sequence (P23977 whole entry, looked up): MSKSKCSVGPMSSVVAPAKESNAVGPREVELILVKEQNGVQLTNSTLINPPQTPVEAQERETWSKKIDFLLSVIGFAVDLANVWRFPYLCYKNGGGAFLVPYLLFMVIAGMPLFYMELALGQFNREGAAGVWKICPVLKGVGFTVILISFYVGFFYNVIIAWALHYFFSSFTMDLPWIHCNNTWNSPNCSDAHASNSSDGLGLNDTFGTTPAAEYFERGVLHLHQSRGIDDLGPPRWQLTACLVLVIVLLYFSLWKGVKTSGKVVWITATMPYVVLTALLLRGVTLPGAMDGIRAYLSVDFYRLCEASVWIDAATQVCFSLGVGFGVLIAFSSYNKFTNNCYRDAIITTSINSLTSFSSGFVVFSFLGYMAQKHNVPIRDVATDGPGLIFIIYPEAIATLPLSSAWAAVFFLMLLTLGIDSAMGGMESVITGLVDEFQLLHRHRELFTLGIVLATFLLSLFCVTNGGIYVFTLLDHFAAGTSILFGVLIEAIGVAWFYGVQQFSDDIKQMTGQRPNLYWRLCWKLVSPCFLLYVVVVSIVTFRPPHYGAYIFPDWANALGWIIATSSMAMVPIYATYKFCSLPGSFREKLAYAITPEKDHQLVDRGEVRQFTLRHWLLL
Monoamine transporters; serotonin & dopamine (Rattus norvegicus), sequence (P31652 whole entry, looked up): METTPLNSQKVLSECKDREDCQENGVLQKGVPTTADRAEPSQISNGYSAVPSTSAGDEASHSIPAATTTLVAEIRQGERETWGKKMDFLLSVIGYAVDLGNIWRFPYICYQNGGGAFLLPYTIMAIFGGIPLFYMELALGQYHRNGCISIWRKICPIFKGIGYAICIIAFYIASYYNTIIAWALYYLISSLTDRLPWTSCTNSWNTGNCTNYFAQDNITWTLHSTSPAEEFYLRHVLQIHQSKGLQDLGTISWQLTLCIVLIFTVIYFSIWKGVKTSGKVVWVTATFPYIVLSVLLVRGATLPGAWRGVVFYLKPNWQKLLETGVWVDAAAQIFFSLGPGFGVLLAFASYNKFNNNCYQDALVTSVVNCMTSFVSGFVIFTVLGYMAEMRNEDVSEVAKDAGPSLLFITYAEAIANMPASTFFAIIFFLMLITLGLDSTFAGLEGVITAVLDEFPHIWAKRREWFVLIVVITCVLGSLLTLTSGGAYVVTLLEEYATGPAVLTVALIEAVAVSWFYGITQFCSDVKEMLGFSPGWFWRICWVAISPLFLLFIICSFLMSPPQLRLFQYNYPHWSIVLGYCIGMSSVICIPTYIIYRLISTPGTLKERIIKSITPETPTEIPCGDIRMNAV
In assay [3] the target is Sodium-dependent dopamine transporter (Rattus norvegicus, UniProt P23977). Briefly: Displacement of [3H]WIN-35428 from dopamine transporter (DAT).
Sodium-dependent dopamine transporter, sequence (P23977 whole entry): as the sequence (P23977 whole entry, looked up) above
The target in assay [4] is Sodium-dependent dopamine transporter (Rattus norvegicus) (UniProt P23977). Briefly: Inhibition of binding affinity for dopamine transporter (DAT) by competition against bound [3H]WIN-35428 tested in vitro at a dose of 100 uM.
Sodium-dependent dopamine transporter (Rattus norvegicus), sequence (P23977 whole entry): as the sequence (P23977 whole entry, looked up) above

Sodium-dependent serotonin transporter, sequence (P31652 whole entry): as the sequence (P31652 whole entry, looked up) above

Consider `CN1CCC(C#N)(c2ccc(I)cc2)CC1`, for which the affinity in assay [1], expressed as Ki, was 0.43 µM. This compound displayed a Selectivity in assay [2] of 19.4.

For the compound `CN1CCC(C#N)(c2ccc3ccccc3c2)CC1`, the Ki was determined as 0.125 µM in assay [1] and 2.36 µM in assay [3]. Besides, the Selectivity in assay [2] is 18.9.

For `CN1CCC(C#N)(c2ccc(Cl)cc2)CC1`, the inhibition in assay [4] came out at 79%. In addition, the Ki stood at 5.11 µM in assay [1] and 22 µM in assay [3]. Besides, the Selectivity in assay [2] was determined as 4.31.

In the case of `CN1CCC(C#N)(c2ccc(Cl)c(Cl)c2)CC1`, the Ki turned out to be 0.805 µM in assay [1] and 2.67 µM in assay [3]. The same compound had a Selectivity in assay [2] of 3.32.

With `CN1CCC(C#N)(c2cccc3ccccc23)CC1`, the values for the Ki in assay [1] and in assay [3] were 1.02 µM and 16 µM, respectively. In assay [2], the Selectivity worked out at 16.7.

For `CCOC(=O)C1(c2ccc(Cl)cc2)CCN(C)CC1`, the inhibition in assay [4] amounted to 79%. The Ki in assay [1] was determined as 0.277 µM; in assay [3] it was 4.1 µM. Further, in assay [2], the Selectivity is 14.8.

`CCOC(=O)C1(c2ccc(C)cc2)CCN(C)CC1` showed an inhibition in assay [4] of 68%. For the same compound, the Ki in assay [1] came out at 1.61 µM; in assay [3], 12.4 µM. The same compound returned a Selectivity in assay [2] of 7.69.

In turn, `CN1CCC(C#N)(c2ccc(F)cc2)CC1` returned an inhibition in assay [4] of 45%. The compound further displayed a Ki in assay [1] of 10.1 µM.

Take `CCOC(=O)C1(c2ccc(F)cc2)CCN(C)CC1`: the results for the Ki in assay [1] and in assay [3] were 0.308 µM and 10.7 µM, respectively. In assay [2], this compound showed a Selectivity of 34.7.

In the case of `CCOC(=O)C1(c2ccc(I)cc2)CCN(C)CC1`, the Ki in assay [1] is 0.021 µM; in assay [3], 3.25 µM. The Selectivity in assay [2] was 155.

For the compound `CCOC(=O)C1(c2ccc3ccccc3c2)CCN(C)CC1`, the Ki in assay [1] turned out to be 0.0072 µM; in assay [3], 1.14 µM. The same compound yielded a Selectivity in assay [2] of 158.

As to `Cc1ccc(C2(C#N)CCN(C)CC2)cc1`, the inhibition in assay [4] was found to be 68%. Besides, the figures for the Ki in assay [1] and in assay [3] were 13.7 µM and 41.8 µM, respectively. In assay [2], the Selectivity turned out to be 3.06.

For `CCOC(=O)C1(c2ccc(Cl)c(Cl)c2)CCN(C)CC1`, the results for the Ki in assay [1] and in assay [3] were 0.019 µM and 0.125 µM, respectively. In assay [2], the Selectivity was determined as 6.68.
